Data taken from publication PMC7904550, “Application of grouping and read-across for the evaluation of parabens of different chain lengths with a particular focus on endocrine properties” (Archives of Toxicology, 2021).
Marks after values point to notes of the source that are not given here.

Assays:
in vivo = settings: for concentration at 1 h / Tmax / AUC(0-t) / Cmax: Wistar, rat, serum; for concentration at 1 h: oral; for Tmax / AUC(0-t) / Cmax: po
Protocol: These studies were conducted similarly to OECD TG 417 applying 500 and 1000 mg/kg body weight (bw) test item via oral gavage to 10 males and 10 females per dose group. Focus of the toxicokinetic evaluation was on the measurement of the serum concentrations of the parent compounds and their (common) major metabolite p-hydroxybenzoic acid by […] in order to assess the systemic uptake and elimination of the parent compounds and this major metabolite [see also ECHA ([2017a])]. The limit of quantification was determined as 10 ng/mL for all parabens, and as 130 ng/mL for p-hydroxybenzoic acid. […] On account of these major aims, investigations of the faeces and urine were not included in the toxicokinetics screening studies.

rats = settings: OECD 478; ref ECHA dissemination portal; cited from earlier work
Wistar rats [1] = assay: Extended one-generation reproductive toxicity study (OECD TG 443); assay type: in vivo, rat; settings: for NOAEL, EOGRTS: developmental and reproductive toxicity: OECD 443 v 2018, oral gavage
Text: (§1) Healthy and specific pathogen-free male and female (non-pregnant and nulliparous) Wistar Crl: WI(Han) rats were obtained from Charles River Laboratories (Germany). […] Upon arrival at BSL BIOSERVICE, the animals underwent an acclimatisation period of at least 5 days, and they were approximately 15–16 weeks old at the onset of the treatment period.

bacteria = settings: OECD 471; ref ECHA dissemination portal; cited from earlier work
mammalian cells = settings: OECD 476; ref ECHA dissemination portal; cited from earlier work
Wistar rats [2] = assay: 90-day repeated dose oral toxicity study (OECD TG 408); assay type: in vivo, rat; settings: for NOAEL, 90-day repeated-dose toxicity: OECD 408 v 2018, oral gavage
Text: as §1

[3] = parent compound, 500 mg/kg, female
[4] = parent compound, 500 mg/kg, male
[5] = parent compound, 1000 mg/kg, female
[6] = parent compound, 1000 mg/kg, male

COC(=O)c1ccc(O)cc1 [Methyl paraben, Methyl 4-hydroxybenzoate]
concentration at 1 h (in vivo; female, 500 mg/kg): 338 ng/mL
concentration at 1 h (in vivo; female, 1000 mg/kg): 924 ng/mL
Tmax (in vivo; female, 500 mg/kg): 4.8 min
AUC(0-t) (in vivo; female, 500 mg/kg, AUC0-1 h, parent compound): 6450 ng·h/mL
AUC(0-t) (in vivo; female, 500 mg/kg, AUC0–t, parent compound): 9500 ng·h/mL
Cmax (in vivo; female, 500 mg/kg, parent compound): 21200 ng/mL
Tmax (in vivo; female, 1000 mg/kg): 4.8 min
AUC(0-t) (in vivo; female, 1000 mg/kg, AUC0-1 h, parent compound): 11400 ng·h/mL
AUC(0-t) (in vivo; female, 1000 mg/kg, AUC0–t, parent compound): 20500 ng·h/mL
Cmax (in vivo; female, 1000 mg/kg, parent compound): 33600 ng/mL
Cmax (in vivo; female, 1000 mg/kg, parent compound, females): ~34000 ng/mL
concentration at 1 h (in vivo; male, 500 mg/kg): 172 ng/mL
concentration at 1 h (in vivo; male, 1000 mg/kg): 552 ng/mL
Tmax (in vivo; male, 500 mg/kg): 4.8 min
AUC(0-t) (in vivo; male, 500 mg/kg, AUC0-1 h, parent compound): 1110 ng·h/mL
AUC(0-t) (in vivo; male, 500 mg/kg, AUC0–t, parent compound): 1790 ng·h/mL
Cmax (in vivo; male, 500 mg/kg, parent compound): 6200 ng/mL
AUC(0-t) (in vivo; male, 1000 mg/kg, AUC0-1 h, parent compound): 4640 ng·h/mL
AUC(0-t) (in vivo; male, 1000 mg/kg, AUC0–t, parent compound): 6150 ng·h/mL
Cmax (in vivo; male, 1000 mg/kg, parent compound): 10800 ng/mL
Cmax (in vivo; male, 1000 mg/kg, parent compound, males): ~11000 ng/mL
Rank of maximum serum concentration among the four parabens (in vivo; parent compound): highest maximum serum concentrations
AUC0-1 h/AUC0–t (in vivo; [3]): 68%
C1h/Cmax (in vivo; [3]): 1.6%
Clast (in vivo; [3]): 77.3 ng/mL
tlast (in vivo; [3]): 8.0 h
AUC0-1 h/AUC0–t (in vivo; [4]): 62%
C1h/Cmax (in vivo; [4]): 2.8%
Clast (in vivo; [4]): 48.6 ng/mL
tlast (in vivo; [4]): 8.0 h
AUC0-1 h/AUC0–t (in vivo; [5]): 55%
C1h/Cmax (in vivo; [5]): 2.7%
Clast (in vivo; [5]): 179 ng/mL
tlast (in vivo; [5]): 8.0 h
AUC0-1 h/AUC0–t (in vivo; [6]): 75%
C1h/Cmax (in vivo; [6]): 5.1%
Clast (in vivo; [6]): 122 ng/mL
tlast (in vivo; [6]): 8.0 h
Genetic toxicity in vivo (rats) classification (rats): Not clastogenic (OECD 478; 1974) [d]
Developmental immunotoxicity (DIT) (Wistar rats [1]; DIT cohort): did not exhibit
Developmental neurotoxicity (DNT) (Wistar rats [1]; DNT cohort): did not exhibit DNT
NOAEL, EOGRTS: developmental and reproductive toxicity (Wistar rats [1]): NOAEL: 1000 (OECD 443; v 2018) mg/kg body weight/day
NOAEL, EOGRTS: developmental and reproductive toxicity (Wistar rats [1]; listed as methyl paraben): 1000 mg/kg body weight/day
Accessory sex organs HP (Wistar rats [1]; P0, F1, (F2)): NAE / NAE
Adrenals HP (Wistar rats [1]; P0, F1, (F2)): NAE / NAE
Adrenals weight (Wistar rats [1]; P0, F1, (F2)): NAE / NAE
Age at balano-preputial separation (Wistar rats [1]; P0, F1, (F2)): NAE / NAE
Age at vaginal opening (Wistar rats [1]; P0, F1, (F2)): NAE / NAE
Anogenital distance (Wistar rats [1]; P0, F1, (F2)): NAE / NAE
Auditory startle (Wistar rats [1]; P0, F1, (F2)): NAE / NAE
Brain HP (Wistar rats [1]; P0, F1, (F2)): NAE / NAE
Brain morphometric evaluation (Wistar rats [1]; P0, F1, (F2)): NAE / NAE
Brain weight (Wistar rats [1]; P0, F1, (F2)): NAE / NAE
Cervix HP (Wistar rats [1]; P0, F1, (F2)): NAE / NAE
Coagulating gland HP (Wistar rats [1]; P0, F1, (F2)): NAE / NAE
Coagulating gland weight (Wistar rats [1]; P0, F1, (F2)): NAE / NAE
Colloid area (thyroid HP) (Wistar rats [1]; P0, F1, (F2)): NAE / NAE
Dystocia (Wistar rats [1]; P0, F1, (F2)): NAE / NAE
Epididymis HP (Wistar rats [1]; P0, F1, (F2)): NAE / NAE
Epididymis weight (Wistar rats [1]; P0, F1, (F2)): NAE / NAE
Fertility (Wistar rats [1]; P0, F1, (F2)): NAE / NAE
Foetal development (Wistar rats [1]; P0, F1, (F2)): NAE / NAE
Functional observation battery (Wistar rats [1]; P0, F1, (F2)): NAE [h] / NAE
Gestation length (Wistar rats [1]; P0, F1, (F2)): NAE / NAE
Litter size (Wistar rats [1]; P0, F1, (F2)): NAE / NAE
Litter viability (Wistar rats [1]; P0, F1, (F2)): NAE / NAE
Liver weight (Wistar rats [1]; P0, F1, (F2)): NAE / NAE
Mammary gland HP; females (Wistar rats [1]; P0, F1, (F2)): NAE / NAE
Mammary gland HP; males (Wistar rats [1]; P0, F1, (F2)): NAE / NAE
Motor activity (Wistar rats [1]; P0, F1, (F2)): NAE / NAE
Nipple development (Wistar rats [1]; P0, F1, (F2)): NAE / NAE
No. of implantations, corpora lutea (Wistar rats [1]; P0, F1, (F2)): NAE / NAE
No. of live births (Wistar rats [1]; P0, F1, (F2)): NAE / NAE
No. of ovarian follicles (Wistar rats [1]; P0, F1, (F2)): NAE / NAE
Oestrus cyclicity (Wistar rats [1]; P0, F1, (F2)): NAE / NAE
Offspring: learning & memory (Wistar rats [1]; P0, F1, (F2)): NAE / NAE
Ovary HP (Wistar rats [1]; P0, F1, (F2)): NAE / NAE
Ovary weight (Wistar rats [1]; P0, F1, (F2)): NAE / NAE
Oviduct HP (Wistar rats [1]; P0, F1, (F2)): NAE / NAE
Pituitary HP (Wistar rats [1]; P0, F1, (F2)): NAE / NAE
Pituitary weight (Wistar rats [1]; P0, F1, (F2)): NAE / NAE
Postimplantation loss (Wistar rats [1]; P0, F1, (F2)): NAE / NAE
Presence of anomalies (external, visceral, skeletal) (Wistar rats [1]; P0, F1, (F2)): NAE / NAE
Prostate HP (Wistar rats [1]; P0, F1, (F2)): NAE / NAE
Prostate weight (Wistar rats [1]; P0, F1, (F2)): NAE / NAE
Pup development (Wistar rats [1]; P0, F1, (F2)): NAE / NAE
Reproduction (Wistar rats [1]; P0, F1, (F2)): NAE / NAE
Seminal vesicles HP (Wistar rats [1]; P0, F1, (F2)): NAE / NAE
Seminal vesicles weight (Wistar rats [1]; P0, F1, (F2)): NAE / NAE
Sperm morphology (Wistar rats [1]; P0, F1, (F2)): NAE / NAE
Sperm motility (Wistar rats [1]; P0, F1, (F2)): NAE / NAE
Sperm numbers (Wistar rats [1]; P0, F1, (F2)): NAE / NAE
Testis HP (Wistar rats [1]; P0, F1, (F2)): NAE / NAE
Testis weight (Wistar rats [1]; P0, F1, (F2)): NAE / NAE
Thyroid HP (Wistar rats [1]; P0, F1, (F2)): NAE / NAE
Thyroid stimulating hormone level (Wistar rats [1]; P0, F1, (F2)): NAE / NAE
Thyroid weight (Wistar rats [1]; P0, F1, (F2)): NAE / NAE
Time to mating (Wistar rats [1]; P0, F1, (F2)): NAE / NAE
Triiodothyronine / thyroxine level (Wistar rats [1]; P0, F1, (F2)): NAE / NAE
Uterus HP (with cervix) (Wistar rats [1]; P0, F1, (F2)): NAE / NAE
Uterus weight (with cervix) (Wistar rats [1]; P0, F1, (F2)): NAE / NAE
Vagina HP (Wistar rats [1]; P0, F1, (F2)): NAE / NAE
Vaginal smears (Wistar rats [1]; P0, F1, (F2)): NAE / NAE
Alterations of the parameters addressed in OECD TG 443 (Wistar rats [1]; up to 1000 mg/kg bw/day): no toxicologically relevant alterations
Mutagenicity in bacteria classification (bacteria): Not mutagenic (OECD 471; 1982, 1991)
Mutagenicity in mammalian cells classification (mammalian cells): Not mutagenic [c] (OECD 476; 2019)
NOAEL, 90-day repeated-dose toxicity (Wistar rats [2]): NOAEL: 1000 (OECD 408; v 2018) mg/kg body weight/day
NOAEL, 90-day repeated-dose toxicity (Wistar rats [2]; listed as methyl paraben): 1000 mg/kg body weight/day
Accessory sex organs HP (Wistar rats [2]; P0): NAE / NAE
Adrenals HP (Wistar rats [2]; P0): NAE / NAE
Adrenals weight (Wistar rats [2]; P0): NAE / NAE
Brain weight (Wistar rats [2]; P0): NAE / NAE
Cervix HP (Wistar rats [2]; P0): NAE / NAE
Coagulating gland HP (Wistar rats [2]; P0): NAE / NAE
Coagulating gland weight (Wistar rats [2]; P0): NAE / NAE
Epididymis HP (Wistar rats [2]; P0): NAE / NAE
Epididymis weight (Wistar rats [2]; P0): NAE / NAE
Liver weight (Wistar rats [2]; P0): NAE / NAE
Mammary gland HP; females (Wistar rats [2]; P0): NAE / NAE
Mammary gland HP; males (Wistar rats [2]; P0): NAE / NAE
Oestrus cyclicity (Wistar rats [2]; P0): NAE / NAE
Ovary HP (Wistar rats [2]; P0): NAE / NAE
Ovary weight (Wistar rats [2]; P0): NAE / NAE
Oviduct HP (Wistar rats [2]; P0): NAE / NAE
Pituitary HP (Wistar rats [2]; P0): NAE / NAE
Pituitary weight (Wistar rats [2]; P0): NAE / NAE
Prostate HP (Wistar rats [2]; P0): NAE / NAE
Prostate weight (Wistar rats [2]; P0): NAE / NAE
Seminal vesicles HP (Wistar rats [2]; P0): NAE / NAE
Seminal vesicles weight (Wistar rats [2]; P0): NAE / NAE
Testis HP (Wistar rats [2]; P0): NAE / NAE
Testis weight (Wistar rats [2]; P0): NAE / NAE
Thyroid HP (Wistar rats [2]; P0): NAE / NAE
Thyroid stimulating hormone level (Wistar rats [2]; P0): NAE / NAE
Thyroid weight (Wistar rats [2]; P0): NAE / NAE
Triiodothyronine / thyroxine level (Wistar rats [2]; P0): NAE / NAE
Uterus HP (with cervix) (Wistar rats [2]; P0): NAE / NAE
Uterus weight (with cervix) (Wistar rats [2]; P0): NAE / NAE
Vagina HP (Wistar rats [2]; P0): NAE / NAE
Vaginal smears (Wistar rats [2]; P0): NAE / NAE
Signs of systemic toxicity (Wistar rats [2]; sub-chronic (90-day) oral application): did not induce any signs of systemic toxicity
